Measured values reported in paper PMC11956017, “Design of Benzyl-triazolopyrimidine-Based NADPH Oxidase Inhibitors Leads to the Discovery of a Potent Dual Covalent NOX2/MAOB Inhibitor” (Journal of Medicinal Chemistry, 2025).

What follows are compounds tested on dehydrogenase domain of csNOX5 (assay: NADPH depletion assay on csNOX5 dehydrogenase domain). Settings: 10 μM inhibitor; 1 μM purified protein, 250 μM NADPH.
Format: biochemical, Cylindrospermum stagnale
Method: A series of derivatives were synthesized and tested at 10 μM against the dehydrogenase domain of NOX5 from Cylindrospermum stagnale (C. stagnale, CsNOX5; Figure 2B).
The NADPH depletion assay for IC50 determinations was performed as described[10] with modifications for covalent inhibitors, which require longer incubation times. Briefly, the catalytic activity was measured by monitoring the absorbance at 340 nm with a Cary 100 UV–vis spectrophotometer (Varian). A 1 μM portion of purified protein was added in a final volume of 130 μL of 50 mM HEPES pH 7.5 and supplemented with 300 μM FAD. Inhibitors were added at varying concentrations and incubated for 1 h at 25 °C.

| SMILES | % INHIBITION csNOX5 DEHYDROGENASE DOMAIN [%] |
| --- | --- |
| Oc1ncnc2c1nnn2Cc1ccccc1 [Compound 1, 3-benzyl-3H-[1,2,3]triazolo[4,5-d]pyrimidin-7-ol] | 0 |
| Cl.c1ccc(Cn2nnc3c(N4CCNCC4)ncnc32)cc1 [Compound 6, 3-Benzyl-7-(piperazin-1-yl)-3H-[1,2,3]triazolo[4,5-d]pyrimidine Hydrochloride] | 7.0 ± 3.2 |
| Nc1ncnc2c1nnn2Cc1ccccc1 [Compound 4, 3-Benzyl-3H-[1,2,3]triazolo[4,5-d]pirimidin-7-amina] | 28.0 ± 9.2 |
| CS(=O)(=O)Oc1ncnc2c1nnn2Cc1ccccc1 [Compound 2] | 15.1 ± 2.5 |
| CC(C)(C)OC(=O)N1CCN(c2ncnc3c2nnn3Cc2ccccc2)CC1 [Compound 5, tert-Butyl 4-(3-benzyl-3H-[1,2,3]triazolo[4,5-d]pyrimidin-7-yl)piperazine-1-carboxylate] | 16.9 ± 8.2 |

Next, values leading:

| % INHIBITION csNOX5 DEHYDROGENASE DOMAIN [%] | SMILES |
| --- | --- |
| 40.5 ± 14.8 | CC(=O)N1CCN(c2ncnc3c2nnn3Cc2ccccc2)CC1 [Compound 7b, 1-(4-(3-Benzyl-3H-[1,2,3]triazolo[4,5-d]pyrimidin-7-yl)piperazin-1-yl)etan-1-one] |
| 28.1 ± 2.8 | C=CC(=O)Nc1ccc(Sc2ncnc3c2nnn3Cc2ccccc2)cc1 [Compound 7d, N-(4-((3-Benzyl-3H-[1,2,3]triazolo[4,5-d]pyrimidin-7-yl)thio)phenyl)acrylamide] |
| 12.0 ± 3.0 | C=CC(=O)N1CCN(c2ncnc3c2nnn3Cc2ccccc2)CC1 [Compound 7a, 1-(4-(3-Benzyl-3H-[1,2,3]triazolo[4,5-d]pyrimidin-7-yl)piperazin-1-yl)prop-2-en-1-one] |
